In brackets after ≈: the same amount, converted by molar mass.
Experiments:
Escherichia coli = assay: In vitro antibacterial evaluation: minimum inhibitory concentration (MIC), broth dilution method; type: cell-based
Outline: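 MIC read as lowest drug level preventing visible growth. Organisms at 5×10^5 CFU/mL were exposed to a 64-0.06 μg/mL dilution series in Muller-Hinton II […] following NCCLS broth dilution standard M7-A2.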

Streptococcus sp. = assay: as above; type: cell-based
Outline: (§1)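 Broth dilution per NCCLS M7-A2 in Muller-Hinton II […], inoculum 5×10^5 CFU/mL, antibiotic tested over 64-0.06 μg/mL. MIC is taken as the lowest concentration that inhibits growth. Panel includes recent clinical isolates resistant to methicillin, penicillin and/or vancomycin.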

Enterococcus sp. = assay: as above; type: cell-based
Outline: as §1

Staphylococcus sp. = assay: as above; type: cell-based; settings: broth dilution, 18 hours at 35° C.
Outline: as §1

[1] = test system: Staphylococcus aureus-SMITH (GC 4543); assay: Acute lethal infection in mice (ED50); type: in vivo; settings: female CD-1 mice, intraperitoneal challenge, intravenous dose 30 min. after infection, 7 day survival ratios
Outline: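 Lethal systemic infection model: female CD-1 mice, 20 ± 1-2 g, intraperitoneal challenge. Single intravenous treatment 30 min after infection; 7-day survival, pooled from 3 tests, gives ED50.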

## CC(c1ccccc1)C1NC(=O)CNC(=O)C(CO)NC(=O)C(C(O)C2CNC(=N)N2C2OC(CO)C(O)C(O)C2O)NC(=O)C(C(O)C2CNC(=N)N2)NC(=O)C(Cc2ccc(OC3OC(CO)C(OC4OC5COC(c6cccc(-c7ccccc7)c6)OC5C(O)C4O)C(O)C3O)cc2)NC1=O (stereo not drawn) [Example 154, Cyclo[glycyl-β-methylphenylalanyl-O-[4-O-[4,6-O-(3-phenylbenzylidene)hexopyranosyl)-hexopyranosyl]tyrosyl-3-(2-iminoimidazolidin-4-yl)seryl-3-(3-hexopyranosyl-2-iminoimidazolidin-4-yl)serylseryl]]
Escherichia coli; strain ATCC 25922
  MIC Escherichia coli (ATCC 25922): 32 µg/mL (≈ 21.9 µM)
Escherichia coli; strain GC 4559
  MIC Escherichia coli (GC 4559): 32 µg/mL (≈ 21.9 µM)
Escherichia coli; strain GC 4560
  MIC Escherichi coli (GC 4560): 2 µg/mL (≈ 1.37 µM)
Streptococcus sp.; strain ATCC 6301
  MIC Streptococcus pneumoniae (ATCC 6301): <0.06 µg/mL
Streptococcus sp.; strain GC 1894
  MIC Streptococcus pneumoniae (GC 1894): <0.06 µg/mL
Streptococcus sp.; strain GC 4563
  MIC Streptococcus pyogenes (GC 4563): <0.06 µg/mL
Streptococcus sp.; strain GC 4564
  MIC Streptococcus agalactiae (GC 4564): <0.06 µg/mL
Streptococcus sp.; strain GC 4565
  MIC Streptococcus pneumoniae (GC 4565): <0.06 µg/mL
Enterococcus sp.; Enterococcus avium (GC 4558), broth dilution, 18 hours at 35° C.
  MIC Enterococcus avium (GC 4558): 1 µg/mL (≈ 0.685 µM)
Enterococcus sp.; Enterococcus faecalis (ATCC 29212), broth dilution, 18 hours at 35° C.
  MIC Enterococcus faecalis (ATCC 29212): 2 µg/mL (≈ 1.37 µM)
Enterococcus sp.; Enterococcus faecalis (GC 4552), broth dilution, 18 hours at 35° C.
  MIC Enterococcus faecalis (GC 4552): 2 µg/mL (≈ 1.37 µM)
Enterococcus sp.; Enterococcus faecalis (GC 4553), broth dilution, 18 hours at 35° C.
  MIC Enterococcus faecalis (GC 4553): 2 µg/mL (≈ 1.37 µM)
Enterococcus sp.; Enterococcus faecalis (GC 4554), broth dilution, 18 hours at 35° C.
  MIC Enterococcus faecalis (GC 4554): 2 µg/mL (≈ 1.37 µM)
Enterococcus sp.; Enterococcus faecalis (GC 6189), broth dilution, 18 hours at 35° C.
  MIC Enterococcus faecalis (GC 6189): 2 µg/mL (≈ 1.37 µM)
Enterococcus sp.; Enterococcus faecium (GC 2243), broth dilution, 18 hours at 35° C.
  MIC Enterococcus faecium (GC 2243): 2 µg/mL (≈ 1.37 µM)
Enterococcus sp.; Enterococcus faecium (GC 4556), broth dilution, 18 hours at 35° C.
  MIC Enterococcus faecium (GC 4556): 2 µg/mL (≈ 1.37 µM)
Enterococcus sp.; Enterococcus faecium (GC 4557), broth dilution, 18 hours at 35° C.
  MIC Enterococcus faecium (GC 4557): 2 µg/mL (≈ 1.37 µM)
Enterococcus sp.; strain ATCC 29212
  MIC Enterococcus faecalis (ATCC 29212): 2 µg/mL (≈ 1.37 µM)
Enterococcus sp.; strain GC 2242
  MIC Enterococcus faecalis (GC 2242): 2 µg/mL (≈ 1.37 µM)
Enterococcus sp.; strain GC 2243
  MIC Enterococcus faecium (GC 2243): 2 µg/mL (≈ 1.37 µM)
Enterococcus sp.; strain GC 2691
  MIC Enterococcus faecalis (GC 2691): 2 µg/mL (≈ 1.37 µM)
Enterococcus sp.; strain GC 3059
  MIC Enterococcus faecalis (GC 3059): 2 µg/mL (≈ 1.37 µM)
Enterococcus sp.; strain GC 4552
  MIC Enterococcus faecalis (GC 4552): 2 µg/mL (≈ 1.37 µM)
Enterococcus sp.; strain GC 4553
  MIC Enterococcus faecalis (GC 4553): 2 µg/mL (≈ 1.37 µM)
Enterococcus sp.; strain GC 4554
  MIC Enterococcus faecalis (GC 4554): 2 µg/mL (≈ 1.37 µM)
Enterococcus sp.; strain GC 4556
  MIC Enterococcus faecium (GC 4556): 2 µg/mL (≈ 1.37 µM)
Enterococcus sp.; strain GC 4557
  MIC Enterococcus faecium (GC 4557): 2 µg/mL (≈ 1.37 µM)
Enterococcus sp.; strain GC 4558
  MIC Enterococcus avium (GC 4558): 1 µg/mL (≈ 0.685 µM)
Enterococcus sp.; strain GC 6189
  MIC Enterococcus faecalis (GC 6189): 2 µg/mL (≈ 1.37 µM)
Staphylococcus sp.; 5×10^5 CFU/mL
  MIC Coagulase Negative Staphylococcus (GC 4547): 2 µg/mL (≈ 1.37 µM)
  MIC Coagulase Negative Staphylococcus (GC 4548): 0.5 µg/mL (≈ 0.343 µM)
  MIC Coagulase Negative Staphylococcus (GC 4549): 0.25 µg/mL (≈ 0.171 µM)
  MIC Coagulase Negative Staphylococcus (GC 4551): 2 µg/mL (≈ 1.37 µM)
  MIC Coagulase Negative Staphylococcus (GC 6257): 1 µg/mL (≈ 0.685 µM)
  MIC Staphylococcus aureus (ATCC 29213): 1 µg/mL (≈ 0.685 µM)
  MIC Staphylococcus aureus (GC 1131): 1 µg/mL (≈ 0.685 µM)
  MIC Staphylococcus aureus (GC 3051): 1 µg/mL (≈ 0.685 µM)
  MIC Staphylococcus aureus (GC 3053): 2 µg/mL (≈ 1.37 µM)
  MIC Staphylococcus aureus (GC 4541): 1 µg/mL (≈ 0.685 µM)
  MIC Staphylococcus aureus (GC 4542): 1 µg/mL (≈ 0.685 µM)
  MIC Staphylococcus aureus (GC 4544): 2 µg/mL (≈ 1.37 µM)
  MIC Staphylococcus aureus (GC 4545): 1 µg/mL (≈ 0.685 µM)
  MIC Staphylococcus aureus-SMITH (GC 4543): 1 µg/mL (≈ 0.685 µM)
  MIC Staphylococcus haemolyticus (GC 4546): 1 µg/mL (≈ 0.685 µM)
Staphylococcus sp.; strain ATCC 29213
  MIC Staphylococcus aureus (ATCC 29213): 1 µg/mL (≈ 0.685 µM)
Staphylococcus sp.; strain GC 1131
  MIC Staphylococcus aureus (GC 1131): 1 µg/mL (≈ 0.685 µM)
Staphylococcus sp.; strain GC 3051
  MIC Staphylococcus aureus (GC 3051): 1 µg/mL (≈ 0.685 µM)
Staphylococcus sp.; strain GC 3053
  MIC Staphylococcus aureus (GC 3053): 2 µg/mL (≈ 1.37 µM)
Staphylococcus sp.; strain GC 4541
  MIC Staphylococcus aureus (GC 4541): 1 µg/mL (≈ 0.685 µM)
Staphylococcus sp.; strain GC 4542
  MIC Staphylococcus aureus (GC 4542): 1 µg/mL (≈ 0.685 µM)
Staphylococcus sp.; strain GC 4543
  MIC Staphylococcus aureus-SMITH (GC 4543): 1 µg/mL (≈ 0.685 µM)
Staphylococcus sp.; strain GC 4544
  MIC Staphylococcus aureus (GC 4544): 2 µg/mL (≈ 1.37 µM)
Staphylococcus sp.; strain GC 4545
  MIC Staphylococcus aureus (GC 4545): 1 µg/mL (≈ 0.685 µM)
Staphylococcus sp.; strain GC 4546
  MIC Staphylococcus haemolyticus (GC 4546): 1 µg/mL (≈ 0.685 µM)
Staphylococcus sp.; strain GC 4547
  MIC Coagulase Negative Staphylococcus (GC 4547): 2 µg/mL (≈ 1.37 µM)
Staphylococcus sp.; strain GC 4548
  MIC Coagulase Negative Staphylococcus (GC 4548): 0.5 µg/mL (≈ 0.343 µM)
Staphylococcus sp.; strain GC 4549
  MIC Coagulase Negative Staphylococcus (GC 4549): 0.25 µg/mL (≈ 0.171 µM)
Staphylococcus sp.; strain GC 4551
  MIC Coagulase Negative Staphylococcus (GC 4551): 2 µg/mL (≈ 1.37 µM)
Staphylococcus sp.; strain GC 6257
  MIC Coagulase Negative Staphylococcus (GC 6257): 1 µg/mL (≈ 0.685 µM)
[1]
  median effective dose (ED50), Staphylococcus aureus-SMITH (GC 4543): 0.1 mg/kg

Source: patent US8247211B2, “Glycopeptide antibiotics” (American Cyanamid Company, priority 2001, dated 2012)
